Data published in US9902710B2, “Substituted 6, 7-dialkoxy-3-isoquinoline derivatives as inhibitors of phosphodiesterase 10 (PDE 10A)” (Allergan, Inc., priority 2013, dated 2018).
pIC50: −log10 of the molar value. Where a name gives a salt, the structure may show the parent alone.

The molecules below were run against PDE10A (assay: Diaxonhit phosphodiesterase assay (TR-FRET, LANCE cAMP kit), PDE10A).
Type: biochemical
Protocol: Diaxonhit Phosphodiesterase Assay (PDE10A and PDE4D3)
The PDE assay is based on the homogenous time-resolved fluorescence resonance energy transfer (TR-FRET) technology (LANCE® from Perkin Elmer). […] When there is PDE activity, resulting in the degradation of the cyclic nucleotide, the complex is not formed and a decrease in signal is observed.
The phosphodiesterase assay was developed using the LANCE® cAMP kit (PerkinElmer). The assay buffer contained HBSS with 5 mM HEPES, 0.1% BSA, and 1.5 mM MgCl2, pH 7.4. […] Chemical compounds were dissolved in DMSO (final concentration 2% (v/v)).
In a 384-well plate, 2 μL of the inhibitor and 3 μL PDE were added to the well, followed by the addition of 5 μl substrate biotinylated cAMP (1:5). After 60 min incubation at room temperature, 10 μL of assay detection mixture was added to the assay plate. After 1 h at room temperature, the signal was measured on EnVision™ (PerkinElmer).

| Structure (SMILES) | pIC50 |
| --- | --- |
| COc1cc2cncc(Cc3ccc4sccc4c3)c2cc1OC [Compound 3, 4-(benzo[b]thiophen-5-ylmethyl)-6,7-dimethoxyisoquinoline hydrochloride] | 7.00 |
| COc1cc2cncc(Cc3ccc4cccc(OC)c4n3)c2cc1OC [Compound 21, 2-((6,7-dimethoxyisoquinolin-4-yl)methyl)-8-methoxyquinoline dihydrochloride] | 7.34 |
| COc1cc2c(Cc3cnc4ccccc4c3)cnc(C)c2cc1OC [Compound 26, 3-((6,7-dimethoxy-1-methylisoquinolin-4-yl)methyl)quinoline dihydrochloride] | 7.31 |
| COc1cc2cncc(Cc3ccc4cccc(OCCO)c4n3)c2cc1OC [Compound 42, 2-((2-((6,7-dimethoxyisoquinolin-4-yl)methyl)quinolin-8-yl)oxy)ethanol dihydrochloride] | 7.38 |
| COc1cc2cnc(C)c(Cc3cnc4ccccc4c3)c2cc1OC [Compound 43, 3-((6,7-dimethoxy-3-methylisoquinolin-4-yl)methyl)quinoline dihydrocloride] | 7.41 |
| CCCc1ncc(Cc2cc3cc(OC)ccc3nc2O)c2cc(OC)c(OC)cc12 [Compound 49, 3-((6,7-dimethoxy-1-propylisoquinolin-4-yl)methyl)-6-methoxyquinolin-2-ol dihydrochloride] | 7.20 |
| CCCc1ncc(Cc2cc3cc(C)ccc3nc2O)c2cc(OC)c(OC)cc12 [Compound 54, 3-((6,7-dimethoxy-1-propylisoquinolin-4-yl)methyl)-6-methylquinolin-2-ol dihydrochloride] | 6.82 |
| CCCc1ncc(Cc2ccc3nc(C)ccc3c2)c2cc(OC)c(OC)cc12 [Compound 57, 6-((6,7-dimethoxy-1-propylisoquinolin-4-yl)methyl)-2-methylquinoline dihydrochloride] | 7.70 |
| CCCc1ncc(Cc2cc3cc(OC)ccc3nc2NCCNC(C)=O)c2cc(OC)c(OC)cc12 [Compound 76, N-(2-((3-((6,7-dimethoxy-1-propylisoquinolin-4-yl)methyl)-6-methoxyquinolin-2-yl)amino)ethyl)acetamide dihydrochloride] | 7.96 |
| CCc1ncc(Cc2ccc3cccc(O)c3n2)c2cc(OC)c(OC)cc12 [Compound 83, 2-((1-ethyl-6,7-dimethoxyisoquinolin-4-yl)methyl)quinolin-8-ol] | 7.96 |
| CCOC(=O)C(=O)Nc1cccc2ccc(Cc3cnc(CC)c4cc(OC)c(OC)cc34)nc12 [Compound 92, ethyl 2-((2-((1-ethyl-6,7-dimethoxyisoquinolin-4-yl)methyl)quinolin-8-yl)amino)-2-oxoacetate] | 6.31 |
| CCc1ncc(Cc2ccc3cccc(CNS(N)(=O)=O)c3n2)c2cc(OC)c(OC)cc12 [Compound 94, N-((2-((1-ethyl-6,7-dimethoxyisoquinolin-4-yl)methyl)quinolin-8-yl)methyl)sulfamide] | 7.89 |
| CCc1ncc(Cc2cnc3ccc(NC(=O)C(N)=O)cc3c2)c2cc(OC)c(OC)cc12 [Compound 98, N^1-(3-((1-ethyl-6,7-dimethoxyisoquinolin-4-yl)methyl)quinolin-6-yl)oxalamide] | 8.46 |
| CCc1ncc(Cc2cnc3ccc(N(C)S(C)(=O)=O)cc3c2)c2cc(OC)c(OC)cc12 [Compound 101, N-(3-((1-ethyl-6,7-dimethoxyisoquinolin-4-yl)methyl)quinolin-6-yl)-N-methylmethanesulfonamide] | 7.37 |
| COc1cc2c(Cc3ccc4nc(C)ccc4c3)cnc(C)c2cc1OC [Compound 105, 6-((6,7-dimethoxy-1-methylisoquinolin-4-yl)methyl)-2-methylquinoline dihydrochloride] | 8.37 |
| CCNc1nc2ccc(OC)cc2cc1Cc1cncc2cc(OC)c(OC)cc12 [Compound 113, 3-((6,7-dimethoxyisoquinolin-4-yl)methyl)-N-ethyl-6-methoxyquinolin-2-amine dihydrochloride] | 7.49 |
| COC(=O)c1ccc(-c2nc3cc(Cc4cncc5cc(OC)c(OC)cc45)ccc3o2)cc1 [Compound 115, methyl 4-(5-((6,7-dimethoxyisoquinolin-4-yl)methyl)benzo[d]oxazol-2-yl)benzoate] | 7.21 |
| CCCc1ncc(Cc2ccc3cccc(OCC(=O)NC4CC4)c3n2)c2cc(OC)c(OC)cc12 [Compound 126, N-cyclopropyl-2-((2-((6,7-dimethoxy-1-propylisoquinolin-4-yl)methyl)quinolin-8-yl)oxy)acetamide] | 7.15 |
| CCOC(=O)COc1cccc2ccc(Cc3cnc(CC)c4cc(OC)c(OC)cc34)nc12 [Compound 128, ethyl 2-((2-((1-ethyl-6,7-dimethoxyisoquinolin-4-yl)methyl)quinolin-8-yl)oxy)acetate] | 7.23 |
| CCCc1ncc(Cc2cc3cc(OC)ccc3nc2NC)c2cc(OC)c(OC)cc12 [Compound 129, 3-((6,7-dimethoxy-1-propylisoquinolin-4-yl)methyl)-6-methoxy-N-methylquinolin-2-amine] | 8.02 |
| CCCc1ncc(Cc2cnc3ccc(OCC(N)=O)cc3c2)c2cc(OC)c(OC)cc12 [Compound 144, 2-((3-((6,7-dimethoxy-1-propylisoquinolin-4-yl)methyl)quinolin-6-yl)oxy)acetamide] | 8.19 |
| CCCc1ncc(Cc2ccc3oc(=O)n(CC(N)=O)c3c2)c2cc(OC)c(OC)cc12 [Compound 148, 2-(5-((6,7-dimethoxy-1-propylisoquinolin-4-yl)methyl)-2-oxobenzo[d]oxazol-3(2H)-yl)acetamide] | 7.06 |
| COc1cc2c(Cc3ccc4cccc(N)c4n3)cnc(C)c2cc1OC [Compound 152, 2-((6,7-dimethoxy-1-methylisoquinolin-4-yl)methyl)quinolin-8-amine] | 7.89 |
| COc1cc2cncc(Cc3cnc4ccc(O)c(C(F)(F)F)c4c3)c2cc1OC [Compound 161, 3-((6,7-dimethoxyisoquinolin-4-yl)methyl)-5-(trifluoromethyl)quinolin-6-ol] | 8.22 |
| CCCc1ncc(Cc2cnc3ccc(OP(=O)(O)O)cc3c2)c2cc(OC)c(OC)cc12 [Compound 171, sodium 3-((6,7-dimethoxy-1-propylisoquinolin-4-yl)methyl)quinolin-6-yl phosphate] | 7.21 |
